Laboratory results from paper PMC8376047, “Complexation of uranyl (UO2)^2+ with bidentate ligands: XRD, spectroscopic, computational, and biological studies” (PLoS ONE, 2021).

Key:
Assay in all cases: UV-Vis absorption titration (Kb) and tryptophan fluorescence quenching (KSV […])
Assay type in all cases: binding
[1] = target: T1, human serum albumin (HSA) (Homo sapiens, UniProt P02768)
T1 construct: gene ALB

[2] = target: T1, human serum albumin (HSA); remark: listed apart in the source
[3] = target: T1, human serum albumin (HSA); remark: listed apart in the source

T1 sequence (P02768 25-609): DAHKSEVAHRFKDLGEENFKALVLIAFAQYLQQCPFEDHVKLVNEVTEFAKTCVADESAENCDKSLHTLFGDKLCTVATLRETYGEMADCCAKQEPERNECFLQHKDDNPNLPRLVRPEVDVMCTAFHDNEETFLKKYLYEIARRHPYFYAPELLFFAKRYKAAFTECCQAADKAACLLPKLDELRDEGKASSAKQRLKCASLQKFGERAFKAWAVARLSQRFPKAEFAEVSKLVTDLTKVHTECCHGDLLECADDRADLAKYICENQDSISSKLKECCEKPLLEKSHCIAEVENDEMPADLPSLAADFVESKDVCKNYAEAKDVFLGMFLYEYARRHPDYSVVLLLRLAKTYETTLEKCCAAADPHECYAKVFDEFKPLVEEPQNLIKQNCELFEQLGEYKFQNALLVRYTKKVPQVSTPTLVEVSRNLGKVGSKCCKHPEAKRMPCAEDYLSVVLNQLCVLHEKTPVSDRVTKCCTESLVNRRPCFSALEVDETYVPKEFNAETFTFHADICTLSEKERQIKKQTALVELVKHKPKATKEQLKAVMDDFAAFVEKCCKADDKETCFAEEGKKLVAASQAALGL

Substance: [(UO2)(OAc)2(SCZ)]
- UV-Vis absorption titration (Kb) and tryptophan fluorescence quenching (KSV 9.46) [1]: 7×10^4

Substance: [(UO2)(OAc)2(MP)]
- UV-Vis absorption titration (Kb) and tryptophan fluorescence quenching (KSV 9.75) [2]: 2.26×10^5

Substance: [(UO2)(OAc)2(CMZ)]
- UV-Vis absorption titration (Kb) and tryptophan fluorescence quenching (KSV 7.2×) [3]: 2.10×10^5
